# Experimental data from patent US5663331A, “Cephalosporin compounds” (Il-Dong Pharm. Co., Ltd., priority 1992, dated 1997).
# Assays:
# Type in all cases: cell-based
# [1] = test system: Bacillus subtilis ATCC 6633; experiment: MIC, two-fold dilution method, Bacillus subtilis ATCC 6633; conditions: 10^6 CFU per ml, 37° C., 18 to 20 hours; for Antibacterial Activity (MIC): Muller Hinton Broth; for MIC: ATCC6633, Muller Hinton Broth, read-out: Antibacterial Activity (MIC)
# Description: (§1) In order to illustrate the usefulness of the invented compounds, the minimal inhibitory concentrations-(MIC) thereof against standard strains were determined and compared with Cefotaxime, a known compound. Also, the in vitro antibacterial activity was determined by a two-fold dilution method as described below: That is, the two-fold serial dilutions of the compound were made and dispersed in Muller Hinton Broth medium. Standard test strain which had the 10^6 CFU per ml was inoculated on the medium, and was incubated at 37° C. for 18 to 20 hours.
# [2] = test system: Staphylococcus aureus ATCC 65389; experiment: MIC, two-fold dilution method, Staphylococcus aureus ATCC 65389; conditions: 10^6 CFU per ml, 37° C., 18 to 20 hours; for Antibacterial Activity (MIC): Muller Hinton Broth; for MIC: ATCC65389, Muller Hinton Broth, read-out: Antibacterial Activity (MIC)
# Description: as §1
# [3] = test system: Staphylococcus epidermidis ATCC 12228; experiment: MIC, two-fold dilution method, Staphylococcus epidermidis ATCC 12228; conditions: 10^6 CFU per ml, 37° C., 18 to 20 hours; for Antibacterial Activity (MIC): Muller Hinton Broth; for MIC: ATCC12228, Muller Hinton Broth, read-out: Antibacterial Activity (MIC)
# Description: as §1
# [4] = test system: Streptococcus faecalis ATCC 10541; experiment: MIC, two-fold dilution method, Streptococcus faecalis ATCC 10541; conditions: 10^6 CFU per ml, 37° C., 18 to 20 hours; for Antibacterial Activity (MIC): Muller Hinton Broth; for MIC: Enterococcus faecalis, ATCC10541, Muller Hinton Broth, read-out: Antibacterial Activity (MIC)
# Description: as §1
# [5] = test system: Pseudomonas aeurginosa NCTC 10490; experiment: MIC, two-fold dilution method, Pseudomonas aeurginosa NCTC 10490; conditions: 10^6 CFU per ml, 37° C., 18 to 20 hours; for Antibacterial Activity (MIC): Muller Hinton Broth; for MIC: NCTC10490, Muller Hinton Broth, read-out: Antibacterial Activity (MIC)
# Description: as §1
# [6] = test system: Esherichia coli ATCC 25922; experiment: MIC, two-fold dilution method, Esherichia coli ATCC 25922; conditions: Muller Hinton Broth, 10^6 CFU per ml, 37° C., 18 to 20 hours; for MIC: read-out: Antibacterial Activity (MIC)
# Description: as §1
# [7] = test system: Klebsiella pneumoniae ATCC 10031; experiment: MIC, two-fold dilution method, Klebsiella pneumoniae ATCC 10031; conditions: 10^6 CFU per ml, 37° C., 18 to 20 hours; for Antibacterial Activity (MIC): Muller Hinton Broth; for MIC: ATCC10031, Muller Hinton Broth, read-out: Antibacterial Activity (MIC)
# Description: as §1
SMILES,Antibacterial Activity (MIC) [1] [mg/L],Antibacterial Activity (MIC) [2] [mg/L],Antibacterial Activity (MIC) [3] [mg/L],Antibacterial Activity (MIC) [4] [mg/L],Antibacterial Activity (MIC) [5] [mg/L],Antibacterial Activity (MIC) [6] [mg/L],Antibacterial Activity (MIC) [7] [mg/L],MIC [1] [mg/L],MIC [2] [mg/L],MIC [3] [mg/L],MIC [4] [mg/L],MIC [5] [mg/L],MIC [6] [mg/L],MIC [7] [mg/L]
"C=CC[n+]1ccc(SCC2=C(C(=O)[O-])N3C(=O)C(NC(=O)/C(=N\OC)c4csc(N)n4)C3SC2)c2cc(F)c(N3CCNCC3C)cc21 (centres unmarked) [Compound I-16, 7-[(Z)-2-(2-aminothiazol-4-yl)-2-(methoxyimino)acetamido]-3-[1-allyl-6-fluoro-7-(2-methylpiperazinyl)quinolinium-4-yl]thiomethyl 3-cephem-4-carboxylate]",0.2,0.2,0.39,0.78,1.56,1.56,0.39,–,–,–,–,–,–,–
"C=CC[n+]1ccc(SCC2=C(C(=O)[O-])N3C(=O)C(NC(=O)/C(=N\OC)c4csc(N)n4)C3SC2)c2cc(F)c(N3CCN(C)CC3)cc21 (centres unmarked) [Compound I-14, 7-[(Z)-2-(2-aminothiazol-4-yl)-2-(methoxyimino)acetamido]-3-[1-allyl-6-fluoro-7-(N-methylpiperazinyl)quinolinium-4-yl]thiomethyl-3-cephem-4-carboxylate]",–,–,–,–,–,–,–,0.1,0.78,0.39,0.2,3.13,3.13,1.56
"CO/N=C(\C(=O)NC1C(=O)N2C(C(=O)[O-])=C(CSc3cc[n+](C)c4cc(N5CCNCC5)c(F)cc34)CSC12)c1csc(N)n1 (centres unmarked) [Compound I-1, 7-[(Z)-2-(2-aminothiazol-4-yl)-2-(methoxyimino)acetamide]-3-(1-methyl-6-fluoro-7-piperazinylquinolinium-4-yl)thiomethyl-3-cephem-4-carboxylate]",–,–,–,–,–,–,–,0.2,0.2,0.1,0.05,1.56,0.78,0.2
"C#CCO/N=C(\C(=O)NC1C(=O)N2C(C(=O)[O-])=C(CSc3cc[n+](C)c4cc(N5CCN(C)CC5)c(F)cc34)CSC12)c1csc(N)n1 (centres unmarked) [Compound I-38, 7-[(Z)-2-(2-aminothiazol-4-yl)-2-(propargyloxyimino)acetamido]-3-[1-methyl-6-fluoro-7-(N-methylpiperazinyl)quinolinium-4-yl]thiomethyl-3-cephem-4-carboxylate]",–,–,–,–,–,–,–,0.78,0.78,0.39,0.2,0.78,–,3.13
"C=CCO/N=C(\C(=O)NC1C(=O)N2C(C(=O)[O-])=C(CSc3cc[n+](C4CC4)c4cc(N5CCNCC5C)c(F)cc34)CS[C@H]12)c1csc(N)n1 (some centres unmarked) [Compound I-28, 7-[(Z)-2-(2-aminothiazol-4-yl)-2-(allyloxyimino)acetamido]-3-[1-cyclopropyl-6-fluoro-7-(2-methylpiperazinyl)quinolinium-4-yl]thiomethyl-3-cephem-4-carboxylate]",0.39,0.2,0.2,0.2,1.56,–,0.78,–,–,–,–,–,–,–
C=CCO/N=C(\C(=O)NC1C(=O)N2C(C(=O)[O-])=C(CSc3cc[n+](C4CC4)c4cc(N5CCN(CC)CC5)c(F)cc34)CSC12)c1csc(N)n1 (centres unmarked) [Compound I-27],–,–,–,–,–,–,–,0.2,0.2,0.2,0.2,0.78,–,0.39
"CO/N=C(\C(=O)NC1C(=O)N2C(C(=O)[O-])=C(CSc3cc[n+](C)c4cc(-n5cnc(C)c5)c(F)cc34)CSC12)c1csc(N)n1 (centres unmarked) [Compound I-18, 7-[(Z)-2-(2-aminothiazol-4-yl)-2-(methoxyimino)acetamido]-3-[1-methyl-6-fluoro-7-(4-methylimidazolyl)quinolinium-4-yl]thiomethyl-3-cephem-4-carboxylate]",0.1,0.2,0.2,0.2,1.56,–,–,–,–,–,–,–,–,–
"C#CCO/N=C(\C(=O)NC1C(=O)N2C(C(=O)[O-])=C(CSc3cc[n+](C)c4cc(N5CCNCC5)c(F)cc34)CS[C@H]12)c1csc(N)n1 (some centres unmarked) [Compound I-37, 7-[(Z)-2-(2-aminothiazol-4-yl)-2-(propargyloxyimino)acetamido]-3-(1-methyl-6-fluoro-7-piperazinylquinolinium-4-yl)thiomethyl-3-cephem-4-carboxylate]",–,–,–,–,–,–,–,0.2,0.39,0.78,0.2,0.2,–,0.78
C#CCO/N=C(\C(=O)NC1C(=O)N2C(C(=O)[O-])=C(CSc3cc[n+](C)c4cc(N5CCN(CC)CC5)c(F)cc34)CSC12)c1csc(N)n1 (centres unmarked) [Compound I-39],–,–,–,–,–,–,–,0.2,0.39,0.2,0.2,0.2,–,0.78

# Results, then the compound that gave them:
Antibacterial Activity (MIC) [1] [mg/L],Antibacterial Activity (MIC) [2] [mg/L],Antibacterial Activity (MIC) [3] [mg/L],Antibacterial Activity (MIC) [4] [mg/L],Antibacterial Activity (MIC) [5] [mg/L],Antibacterial Activity (MIC) [6] [mg/L],Antibacterial Activity (MIC) [7] [mg/L],MIC [1] [mg/L],MIC [2] [mg/L],MIC [3] [mg/L],MIC [4] [mg/L],MIC [5] [mg/L],MIC [6] [mg/L],MIC [7] [mg/L],SMILES
0.1,0.39,0.78,0.39,1.56,3.13,1.56,–,–,–,–,–,–,–,"C#CCO/N=C(\C(=O)NC1C(=O)N2C(C(=O)[O-])=C(CSc3cc[n+](CC)c4cc(N5CCNCC5C)c(F)cc34)CS[C@H]12)c1csc(N)n1 (some centres unmarked) [Compound I-48, 7-[(Z)-2-(2-aminothiazol-4-yl)-2-(propargyloxyimino)acetamido]-3-[1-ethyl-6-fluoro-7-(2-methylpiperazinyl)quinolinium-4-yl]thiomethyl-3-cephem-4-carboxylate]"
–,–,–,–,–,–,–,0.39,1.56,1.56,0.78,1.56,1.56,1.56,"C#CCO/N=C(\C(=O)NC1C(=O)N2C(C(=O)[O-])=C(CSc3cc[n+](CC=C)c4cc(N5CCNCC5)c(F)cc34)CS[C@H]12)c1csc(N)n1 (some centres unmarked) [Compound I-49, 7-[(Z)-2-(2-aminothiazol-4-yl)-2-(propargyloxyimino)acetamido]-3-(1-allyl-6-fluoro-7-piperazinylquinolinium-4-yl)thiomethyl-3-cephem-4-carboxylate]"
–,–,–,–,–,–,–,0.1,0.1,0.1,0.05,0.78,1.56,0.78,C#CCO/N=C(\C(=O)NC1C(=O)N2C(C(=O)[O-])=C(CSc3cc[n+](C4CC4)c4cc(N5CCN(CC)CC5)c(F)cc34)CSC12)c1csc(N)n1 (centres unmarked) [Compound I-43]
0.2,0.39,0.1,0.2,0.2,–,0.78,–,–,–,–,–,–,–,"C#CCO/N=C(\C(=O)NC1C(=O)N2C(C(=O)[O-])=C(CSc3cc[n+](C)c4cc(N5CCNCC5C)c(F)cc34)CS[C@H]12)c1csc(N)n1 (some centres unmarked) [Compound I-40, 7-[(Z)-2-(2-aminothiazol-4-yl)-2-(propargyloxyimino)acetamido]-3-[1-methyl-6-fluoro-7-(2-methylpiperazinyl)quinolinium-4-yl]thiomethyl-3-cephem-4-carboxylate]"
0.39,1.56,1.56,0.39,1.56,–,1.56,–,–,–,–,–,–,–,"CC[n+]1ccc(SCC2=C(C(=O)[O-])N3C(=O)C(NC(=O)/C(=N\OC(C)(C)C(=O)O)c4csc(N)n4)[C@H]3SC2)c2cc(F)c(-n3ccnc3)cc21 (some centres unmarked) [Compound I-65, 7-[(Z)-2-(2-aminothiazol-4-yl)-2-(2-carboxyprop-2-oxyimino)acetamido]-3-(1-ethyl-6-fluoro-7-imidazolylquinolinium-4-yl)thiomethyl-3-cephem-4-carboxylate]"
0.39,3.13,1.56,0.39,1.56,–,1.56,–,–,–,–,–,–,–,"CC[n+]1ccc(SCC2=C(C(=O)[O-])N3C(=O)C(NC(=O)/C(=N\OC(C)(C)C(=O)O)c4csc(N)n4)[C@H]3SC2)c2cc(F)c(N3CCNCC3)cc21 (some centres unmarked) [Compound I-53, 7-[(Z)-2-(2-aminothiazol-4-yl)-2-(2-carboxyprop-2-oxyimino)acetamido]-3-(1-ethyl-6-fluoro-7-piperazinylquinolinium-4-yl)thiomethyl-3-cephem-4-carboxylate]"
